From patent publication US6498179B1, “Oxazole derivatives, their production and use” (Takeda Chemical Industries, Ltd., priority 1996, dated 2002)
Read-outs that look alike come from different tables or passages of the source.

Tests used:
KKA^y mice = test: Test for blood sugar depression in mice; assay type: in vivo; settings: Mus musculus, fasted male KKA^y mice, oral 30 mg/kg, compared with control group
Protocol: After being fasted for 20 hours, 9- to 12-week-old, male KKA^y mice (five mice in each group) were orally given the test compound at a dose of 30 mg/kg/10 ml through a stomach tube. Control mice were orally given 5% gum arabic solution. Blood samples (70 μl) were obtained from orbital venous plexus through capillary tube before and 60 and 120 minutes after the administration of the test compound. Blood glucose was determined according to a glucose oxidase method using a commercial kit (Iatrochem, GIU(A), Iatron Labs. Inc.). Blood glucose level at 60 or 120 minutes of the test groups was compared with that of control group, and was shown as blood glucose depression (%) (Table 1).

MIN6 cells = test: Insulinotropic effect on MIN6 cells; assay type: cell-based, mouse; settings: compound 10 μM, 12.5 mM glucose, 2 hours, percentage of control
Protocol: MIN6 cells established from mouse beta cell tumor were cultured in DMEM supplemented with 15% fetal bovine serum on 12-well plate at 37° C. in 5% CO2, and were used at the stage of subconfluency. Cells were washed twice with PBS and incubated in Krebs-Ringer HEPES(KRH) containing with 0.1 mM glucose for 30 minutes. Then they were incubated in KRH containing with 12.5 mM glucose and 0.1% DMSO (control) or compound (10 μM) for 2 hours. Medium was collected and insulin concentration was measured using a commercial radioimmunoassay kit (Amarsham Inc.). The plate was washed once with PBS and cellular protein content was determined by the method of Lowrey et al. (J. Biol. Chem. 193, 265-275, 1951). Insulinotropic activity of the compound was indicated as percentage of control (Table 2).

## Cc1nccn1-c1nc(-c2ccc(Cl)cc2)c(CCCO)o1 [Example 36, 4-(4-chlorophenyl)-2-(2-methyl-1-imidazolyl)-5-oxazolepropanol]
KKA^y mice; 1 h, 60 minutes after administration, read-out: Degree of Blood Glucose Depression (%) After 60 minutes
  inhibition in vivo at 30 mg/kg: 23%
KKA^y mice; 2 h, 120 minutes after administration, read-out: Degree of Blood Glucose Depression (%) After 120 minutes
  inhibition in vivo at 30 mg/kg: 18%
MIN6 cells
  Insulin secretion-promoting effect (%): 272%

## Cc1nccn1-c1nc(-c2ccc(Cl)cc2)c(CCCCO)o1 [Example 65, 4-(4-chlorophenyl)-2-(2-methyl-1-imidazolyl)-5-oxazolebutanol]
MIN6 cells
  Insulin secretion-promoting effect (%): 397%
other
  melting point: 110 to 111 °C

## Cc1nccn1-c1nc(-c2ccc(Cl)cc2)c(CCCn2ccnc2)o1 [Example 72, 4-(4-chlorophenyl)-5-[3-(1-imidazolyl)propyl]-2-(2-methyl-1-imidazolyl)oxazole]
MIN6 cells
  Insulin secretion-promoting effect (%): 303%
other
  melting point: 133 to 134 °C

## Cc1nc(-c2nc(-c3ccc(Cl)cc3)c(CCCCCO)o2)c[nH]1 [Example 83, 4-(4-chlorophenyl)-2-(2-methyl-imidazolyl)-5-oxazolepentanol]
MIN6 cells
  Insulin secretion-promoting effect (%): 359%
other
  melting point: 94 to 95 °C

## Cc1nccn1-c1nc(-c2ccc(Cl)cc2)c(CCCCn2ccnc2)o1 [Example 89, 4-(4-chlorophenyl)-5-[4-(1-imidazolyl)butyl]-2-(2-methyl-1-imidazolyl)oxazole]
MIN6 cells
  Insulin secretion-promoting effect (%): 385%
other
  melting point: 84 to 85 °C
